Legend:
[1] = biological target: T1, Recombinant BTK^C481S kinase (Homo sapiens, UniProt Q06187, C481S); assay: BTK C481S binding affinity (LanthaScreen TR-FRET); settings: Kinase Tracer 236, 5 h incubation
T1 construct: purchased SignalChem
Procedure, shortened: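 BTK C481S tracer-displacement TR-FRET: 5 nM His-tagged kinase, 2 nM Eu anti-His antibody and 30 nM Kinase Tracer 236 incubated with titrated inhibitor for 5 h in Kinase Buffer A. Read at 340 nm excitation, 615/665 nm emission; IC50 from variable-slope log[inhibitor]–response fit.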

[2] = biological target: T2, Recombinant EGFR (Homo sapiens, UniProt P00533); assay: EGFR binding affinity (LanthaScreen TR-FRET); settings: Kinase Tracer 199, 5 h incubation
T2 construct: purchased Invitrogen
T2 sequence (P00533 25-1210): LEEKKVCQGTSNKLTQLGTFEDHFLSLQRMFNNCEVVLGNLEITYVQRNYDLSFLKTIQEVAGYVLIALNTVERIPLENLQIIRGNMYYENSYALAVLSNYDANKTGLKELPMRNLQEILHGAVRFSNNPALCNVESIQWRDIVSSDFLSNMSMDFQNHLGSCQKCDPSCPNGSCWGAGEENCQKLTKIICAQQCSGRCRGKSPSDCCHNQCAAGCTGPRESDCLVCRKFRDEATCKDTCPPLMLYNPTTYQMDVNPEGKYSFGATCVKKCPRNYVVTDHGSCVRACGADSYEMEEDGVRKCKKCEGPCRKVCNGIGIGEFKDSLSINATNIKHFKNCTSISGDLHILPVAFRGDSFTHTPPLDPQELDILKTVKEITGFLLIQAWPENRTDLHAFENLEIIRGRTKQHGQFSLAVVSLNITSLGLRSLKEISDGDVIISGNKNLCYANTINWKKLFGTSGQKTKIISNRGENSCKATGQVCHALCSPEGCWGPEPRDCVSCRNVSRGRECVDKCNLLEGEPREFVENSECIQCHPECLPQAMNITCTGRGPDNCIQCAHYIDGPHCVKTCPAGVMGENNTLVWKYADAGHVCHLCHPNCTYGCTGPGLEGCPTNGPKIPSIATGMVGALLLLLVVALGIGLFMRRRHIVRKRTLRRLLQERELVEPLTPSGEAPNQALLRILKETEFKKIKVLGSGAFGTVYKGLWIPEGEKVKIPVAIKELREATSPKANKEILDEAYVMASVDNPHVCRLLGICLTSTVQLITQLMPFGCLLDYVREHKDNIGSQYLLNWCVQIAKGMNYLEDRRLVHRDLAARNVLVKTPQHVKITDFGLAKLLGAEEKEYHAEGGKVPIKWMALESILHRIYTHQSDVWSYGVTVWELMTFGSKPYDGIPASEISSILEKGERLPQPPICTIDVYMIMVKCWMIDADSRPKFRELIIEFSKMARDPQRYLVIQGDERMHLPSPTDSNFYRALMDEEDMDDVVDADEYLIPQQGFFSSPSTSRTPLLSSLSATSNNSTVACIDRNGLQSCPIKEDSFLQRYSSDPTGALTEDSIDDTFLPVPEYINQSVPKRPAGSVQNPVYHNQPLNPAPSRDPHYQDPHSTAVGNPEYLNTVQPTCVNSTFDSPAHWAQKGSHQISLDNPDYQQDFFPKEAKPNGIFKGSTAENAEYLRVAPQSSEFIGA
Procedure, shortened: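 TR-FRET binding (LanthaScreen) with recombinant EGFR; signal measured across a compound concentration range. IC50 obtained by fitting RFU against log[inhibitor] to a variable-slope model.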

[3] = tested on: OCI-Ly10 human DLBCL cells; assay: OCI-Ly10 anti-proliferative activity (Resazurin); format: cell-based; settings: Homo sapiens, OCI-Ly10, 72 h, OCI-Ly10 cells, 72 h compound treatment, Resazurin; read-out: Proliferation Assay OCI-Ly10-20% FBS
Procedure, shortened: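 OCI-Ly10 human DLBCL cells, whose growth depends on NFκB signalling, were seeded at 7.5×10^3 cells per well in 96-well plates with a range of compound concentrations and kept at 37° C for 72 h. Resazurin was then added, and after 5 h fluorescence was read at 590 nm.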

[4] = biological target: T3, Recombinant BTK^WT kinase (Homo sapiens, UniProt Q06187); assay: BTK WT binding affinity (LanthaScreen TR-FRET); settings: Kinase Tracer 236, 5 h incubation
T3 construct: purchased Invitrogen
T3 sequence (Q06187 whole entry): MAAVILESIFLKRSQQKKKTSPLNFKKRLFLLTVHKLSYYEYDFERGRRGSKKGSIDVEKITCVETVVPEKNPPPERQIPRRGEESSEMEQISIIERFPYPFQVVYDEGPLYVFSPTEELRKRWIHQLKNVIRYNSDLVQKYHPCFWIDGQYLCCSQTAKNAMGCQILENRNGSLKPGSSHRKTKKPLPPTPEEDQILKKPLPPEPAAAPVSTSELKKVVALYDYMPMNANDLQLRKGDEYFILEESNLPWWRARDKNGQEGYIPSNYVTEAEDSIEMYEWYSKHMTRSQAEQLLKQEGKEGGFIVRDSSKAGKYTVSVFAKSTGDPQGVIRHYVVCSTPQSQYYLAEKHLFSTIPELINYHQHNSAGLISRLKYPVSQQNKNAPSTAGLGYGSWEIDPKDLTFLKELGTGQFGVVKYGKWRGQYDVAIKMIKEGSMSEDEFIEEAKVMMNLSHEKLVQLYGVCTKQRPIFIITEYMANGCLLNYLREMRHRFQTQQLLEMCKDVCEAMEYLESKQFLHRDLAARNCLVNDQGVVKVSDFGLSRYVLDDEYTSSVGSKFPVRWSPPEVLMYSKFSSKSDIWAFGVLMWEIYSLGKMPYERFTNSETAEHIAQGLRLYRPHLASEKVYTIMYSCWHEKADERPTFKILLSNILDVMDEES
Procedure, shortened: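 Tracer-displacement TR-FRET: 2.5 nM recombinant BTK^WT, 2 nM Eu anti-His antibody and 15 nM Kinase Tracer 236 incubated with varying inhibitor concentrations for 5 h in Kinase Buffer A. Signal read at 340 nm excitation, 615/665 nm emission; IC50 from variable-slope log[inhibitor]–response fit.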

T1 sequence (Q06187 whole entry C481S): as the sequence (Q06187 whole entry) above, with C481S counted along it

Row | SMILES | IC50 [1] | IC50 [2] | IC50 [3] | IC50 [4]
1 | COc1ccccc1C(=O)NCc1ccc(-c2nn(-c3ccc(F)c(F)c3)c(N)c2C(N)=O)cc1 [Example 98, 5-amino-1-(3,4-difluorophenyl)-3-[4-[[(2-methoxybenzoyl)amino]methyl]phenyl]pyrazole-4-carboxamide] | < 10 nM | 1000 to 10000 nM | 100 to 1000 nM | < 10 nM
2 | COc1ccccc1C(=O)NCc1ccc(-c2nn(C3CCOCC3)c(N)c2C(N)=O)c(F)c1 [Example 99, 5-amino-3-[2-fluoro-4-[[(2-methoxybenzoyl)amino]methyl]phenyl]-1-tetrahydropyran-4-yl-pyrazole-4-carboxamide] | < 10 nM | > 10000 nM | 100 to 1000 nM | 10 to 100 nM
3 | COc1ccccc1C(=O)NCc1ccc(-c2nn(C3CCOC3)c(N)c2C(N)=O)c(F)c1 (stereo not drawn) [Example 100, 5-amino-3-[2-fluoro-4-[[(2-methoxybenzoyl)amino]methyl]phenyl]-1-tetrahydrofuran-3-yl-pyrazole-4-carboxamide] | < 10 nM | > 10000 nM | 100 to 1000 nM | 10 to 100 nM
4 | COc1ccccc1C(=O)NCc1ccc(-c2nn(C3CCCC3)c(N)c2C(N)=O)c(C)c1 [Example 101, 5-amino-1-cyclopentyl-3-[4-[[(2-methoxybenzoyl)amino]methyl]-2-methyl-phenyl]pyrazole-4-carboxamide] | < 10 nM | > 10000 nM | 100 to 1000 nM | 10 to 100 nM
5 | COc1ccccc1C(=O)NCc1ccc(-c2nn(C3CCCOC3)c(N)c2C(N)=O)c(F)c1 (stereo not drawn) [Example 102, 5-amino-3-[2-fluoro-4-[[(2-methoxybenzoyl)amino]methyl]phenyl]-1-tetrahydropyran-3-yl-pyrazole-4-carboxamide] | < 10 nM | > 10000 nM | 100 to 1000 nM | < 10 nM
6 | COc1ccccc1C(=O)NCc1ccc(-c2nn(C3CCCC3F)c(N)c2C(N)=O)cc1 (stereo not drawn) [Example 103, 5-amino-1-(2-fluorocyclopentyl)-3-[4-[[(2-methoxybenzoyl)amino]methyl]phenyl]pyrazole-4-carboxamide] | < 10 nM | 1000 to 10000 nM | 10 to 100 nM | < 10 nM
7 | COc1ccccc1C(=O)NCc1ccc(-c2nn(C3CC(C)OC(C)C3)c(N)c2C(N)=O)cc1 (stereo not drawn) [Example 104, 5-amino-1-(2,6-dimethyltetrahydropyran-4-yl)-3-[4-[[(2-methoxybenzoyl)amino]methyl]phenyl]pyrazole-4-carboxamide] | < 10 nM | 1000 to 10000 nM | 100 to 1000 nM | 10 to 100 nM
8 | COc1ccc(F)cc1C(=O)NCc1ccc(-c2nn(C3CCOC3)c(N)c2C(N)=O)c(F)c1 (stereo not drawn) [Example 105, 5-amino-3-[2-fluoro-4-[[(5-fluoro-2-methoxy-benzoyl)amino]methyl]phenyl]-1-tetrahydrofuran-3-yl-pyrazole-4-carboxamide] | < 10 nM | 1000 to 10000 nM | 100 to 1000 nM | 10 to 100 nM
9 | COc1ccc(F)cc1C(=O)NCc1ccc(-c2nn(C3CCOCC3)c(N)c2C(N)=O)c(F)c1 [Example 106, 5-amino-3-[2-fluoro-4-[[(5-fluoro-2-methoxy-benzoyl)amino]methyl]phenyl]-1-tetrahydropyran-4-yl-pyrazole-4-carboxamide] | < 10 nM | > 10000 nM | 100 to 1000 nM | < 10 nM
10 | COc1ccc(F)cc1C(=O)NCc1ccc(-c2nn(C3CCCOC3)c(N)c2C(N)=O)c(F)c1 (stereo not drawn) [Example 107, 5-amino-3-[2-fluoro-4-[[(5-fluoro-2-methoxy-benzoyl)amino]methyl]phenyl]-1-tetrahydropyran-3-yl-pyrazole-4-carboxamide] | < 10 nM | > 10000 nM | 10 to 100 nM | < 10 nM
11 | COc1ccccc1C(=O)NCc1ccc(-c2nn(C3CCOCC3)c(C(F)F)c2C(N)=O)cc1 [Example 108, 5-(difluoromethyl)-3-[4-[[(2-methoxybenzoyl)amino]methyl]phenyl]-1-tetrahydropyran-4-yl-pyrazole-4-carboxamide] | 10 to 100 nM | > 10000 nM | 1000 to 10000 nM | 10 to 100 nM
12 | COc1ccccc1C(=O)NCc1ccc(-c2nn(C3CCOC3)c(N)c2C(N)=O)cc1F (stereo not drawn) [Example 109, 5-amino-3-[3-fluoro-4-[[(2-methoxybenzoyl)amino]methyl]phenyl]-1-tetrahydrofuran-3-yl-pyrazole-4-carboxamide] | < 10 nM | 1000 to 10000 nM | 100 to 1000 nM | < 10 nM
13 | CNc1c(C(N)=O)c(-c2ccc(CNC(=O)c3ccccc3OC)cc2)nn1-c1cccnc1 [Example 110, 3-[4-[[(2-methoxybenzoyl)amino]methyl]phenyl]-5-(methylamino)-1-(3-pyridyl)pyrazole-4-carboxamide] | 10 to 100 nM | 1000 to 10000 nM | 1000 to 10000 nM | 10 to 100 nM
14 | COc1ccccc1C(=O)NCc1ccc(-c2nn(C3CCOC(C(F)(F)F)C3)c(N)c2C(N)=O)cc1 (stereo not drawn) [Example 111, 5-amino-3-[4-[[(2-methoxybenzoyl)amino]methyl]phenyl]-1-[2-(trifluoromethyl)tetrahydropyran-4-yl]pyrazole-4-carboxamide] | < 10 nM | 100 to 1000 nM | 100 to 1000 nM | < 10 nM
15 | COc1ccccc1C(=O)NCc1ccc(-c2nn([C@H]3CCOC3)c(C(F)F)c2C(N)=O)cc1 [Example 112, 5-(difluoromethyl)-3-[4-[[(2-methoxybenzoyl)amino]methyl]phenyl]-1-[(3S)-tetrahydrofuran-3-yl]pyrazole-4-carboxamide] | 100 to 1000 nM | > 10000 nM | > 10000 nM | 100 to 1000 nM
16 | COc1ccc(F)cc1C(=O)NCc1ccc(-c2nn(C3CCCOC3)c(N)c2C(N)=O)cc1 (stereo not drawn) [Example 113, 5-amino-3-[4-[[(5-fluoro-2-methoxy-benzoyl)amino]methyl]phenyl]-1-tetrahydropyran-3-yl-pyrazole-4-carboxamide] | < 10 nM | 1000 to 10000 nM | 10 to 100 nM | < 10 nM
17 | COc1ccc(F)cc1C(=O)NCc1ccc(-c2nn(C3CCOC3)c(N)c2C(N)=O)cc1 (stereo not drawn) [Example 114, 5-amino-3-[4-[[(5-fluoro-2-methoxy-benzoyl)amino]methyl]phenyl]-1-tetrahydrofuran-3-yl-pyrazole-4-carboxamide] | < 10 nM | 1000 to 10000 nM | 10 to 100 nM | < 10 nM
18 | COc1ccc(F)cc1C(=O)NCc1ccc(-c2nn(C3CCOCC3)c(N)c2C(N)=O)cc1 [Example 115, 5-amino-3-[4-[[(5-fluoro-2-methoxy-benzoyl)amino]methyl]phenyl]-1-tetrahydropyran-4-yl-pyrazole-4-carboxamide] | < 10 nM | 1000 to 10000 nM | 10 to 100 nM | < 10 nM
19 | COc1ccccc1C(=O)NCc1ccc(-c2nn(C3CCOCC3)c(N)c2C(N)=O)cc1F [Example 116, 5-amino-3-[3-fluoro-4-[[(2-methoxybenzoyl)amino]methyl]phenyl]-1-tetrahydropyran-4-yl-pyrazole-4-carboxamide] | < 10 nM | 1000 to 10000 nM | 100 to 1000 nM | 10 to 100 nM
20 | COc1ccccc1C(=O)NCc1ccc(-c2nn(C3CCCOC3)c(N)c2C(N)=O)cc1F (stereo not drawn) [Example 117, 5-amino-3-[3-fluoro-4-[[(2-methoxybenzoyl)amino]methyl]phenyl]-1-tetrahydropyran-3-yl-pyrazole-4-carboxamide] | < 10 nM | 1000 to 10000 nM | 10 to 100 nM | < 10 nM
21 | COc1ccccc1C(=O)NCc1cc(-c2nn(C3CCCC3)c(N)c2C(N)=O)ccc1F [Example 118, 5-amino-1-cyclopentyl-3-[4-fluoro-3-[[(2-methoxybenzoyl)amino]methyl]phenyl]pyrazole-4-carboxamide] | 10 to 100 nM | 1000 to 10000 nM | 1000 to 10000 nM | 100 to 1000 nM
22 | COc1ccc(F)cc1C(=O)NCc1ccc(-c2nn(C3CCOC3)c(N)c2C(N)=O)cc1F (stereo not drawn) [Example 119, 5-amino-3-[3-fluoro-4-[[(5-fluoro-2-methoxy-benzoyl)amino]methyl]phenyl]-1-tetrahydrofuran-3-yl-pyrazole-4-carboxamide] | < 10 nM | 1000 to 10000 nM | 10 to 100 nM | < 10 nM
23 | COc1ccc(F)cc1C(=O)NCc1ccc(-c2nn(C(C)C(F)(F)F)c(N)c2C(N)=O)cc1 (stereo not drawn) [Example 120, 5-amino-3-[4-[[(5-fluoro-2-methoxy-benzoyl)amino]methyl]phenyl]-1-(2,2,2-trifluoro-1-methyl-ethyl)pyrazole-4-carboxamide] | < 10 nM | 1000 to 10000 nM | 10 to 100 nM | < 10 nM
24 | COc1ccccc1C(=O)NCc1ccc(-c2nn(C(C)C(F)(F)F)c(N)c2C(N)=O)cc1 (stereo not drawn) [Example 121, 5-amino-3-[4-[[(2-methoxybenzoyl)amino]methyl]phenyl]-1-(2,2,2-trifluoro-1-methyl-ethyl)pyrazole-4-carboxamide] | < 10 nM | 100 to 1000 nM | 10 to 100 nM | < 10 nM
